Where a SMILES comes first, the peptide text is derived from it.
Key:
[1] = tested on: shoot (rosette) of Arabidopsis seedlings; assay: Shoot growth, diameter of rosettes (Figure S1); format: in vivo, Arabidopsis thaliana; settings: for Mean diff, A2 - B2, diameter of rosettes: two-way ANOVA output, by table order A = mock, B = peptide, row 2 = Day 4
[2] = tested on: root tip cells of Arabidopsis seedlings; assay: Root tip morphology, generation of root hairs; format: in vivo, Arabidopsis thaliana; settings: peptide for 4 days, up to 500 nM, n = 20
Experimental: (§1) Five-day-old seedlings were transferred from 1/2 MS medium to 1/2 MS medium supplemented with or without elicitor for four days. The transferred seedlings were photographed every day for a total of four days. The primary root length was measured using ImageJ software (V 1.8.0). After four days of elicitor treatment, the root tips of seedlings were observed by microscope and the fluorescence from root tip cells of GFP tag seedlings were excited with a 488 nm laser. Emission was detected between 495 and 550 nm. The images were acquired with an OLYMPUS FV10-MCPUS confocal laser scanning microscope. Images were processed using LSM image examiner software (FV10-ASW3.1) and Adobe Photoshop CS4 version 11.0.2 (Adobe Systems, San Jose, CA, USA).

[3] = tested on: DR5::GFP (auxin maxima in root tips); assay: DR5::GFP reporter for auxin maxima in root tips; format: in vivo, Arabidopsis thaliana; settings: 500 nM peptide, four days, confocal microscopy, n = 20, one-way ANOVA
Text: (§2) All plants used in this study are of the Arabidopsis thaliana accession Columbia-0 (Col-0) background, including the wild-type, mutant line pepr1-2pepr2-2 (pepr1/2, AT1G73080 and AT1G17750) and transgenic lines expressing WOX5::GFP (AT3G11260) and DR5::GFP [35]. DR5 was created by petforming site-directed mutations in a natural composite auxin response element (AuxRE) found in the soybean GH3 promoter. DR5 consisted of tandem direct repeats of 11 bp (CCTTTTGTCTC)
as §1

[4] = tested on: WOX5::GFP (quiescent center); assay: WOX5::GFP reporter in quiescent centre of root tips; format: in vivo, Arabidopsis thaliana; settings: 500 nM peptide, four days, confocal microscopy, n = 20
Text: as §2, §1

[5] = tested on: ROS burst in Arabidopsis leaves (Col-0); assay: ROS burst, luminol dependent assay in Col-0 leaves; format: cell-based, Arabidopsis thaliana; settings: for concentration at which ROS burst is triggered: Col-0 leaf pieces, luminol L-012/HRP, luminescence recorded 30 min
Experimental: The measurement of ROS burst was carried out using a luminol dependent assay. Briefly, leaf samples were cut into small pieces and placed in a 96-well plate containing 0.1 mL reaction solution (2 µg/mL horseradish peroxidase, 200 µM luminol L-012). Luminescence signal was immediately measured upon the addition elicitor peptides and recorded for a period of 30 min. The total relative light units (RLUs) measured within a 15 min time was plotted.

[6] = tested on: primary root growth of Arabidopsis thaliana Col-0 seedlings; format: in vivo; settings: n = 20; for concentration at which primary root growth is inhibited: five-day-old Col-0 seedlings transferred to 1/2 MS with peptide, up to 4 days; for inhibitory effect on primary root growth (in words): different concentrations up to 500 nM, 4 days
Experimental: For sterile seedlings, the seeds were first surface-sterilized with 75% ethanol twice. Then, after cold treatment at 4 °C for 2 days, the seeds were germinated on 1/2 Murashige-Skoog (MS) medium supplemented with 0.8% agar and 1% sucrose. For four-week-old plants, the seeds after cold treatment at 4 °C for 2 days were grown in a 1:1 mixture of sand: humus. Both growth environments were carried out in a growth cabinet with 12 h of light, a temperature of 22 °C, and 60% humidity.
as §1

Compound | Mean diff, A2 - B2, diameter of rosettes [1] | generation of root hairs / maturation of root tip cells (in words) [2] | maximum levels of auxin in root tips (DR5::GFP fluorescence) compared with control [3] | WOX5 expression (WOX5::GFP signaling width) compared with control [4] | concentration at which ROS burst is triggered ([5]; n = 4) | concentration at which primary root growth is inhibited [6] | concentration that completely inhibited the primary root growth ([6]; five-day-old Col-0 seedlings, 4 days on peptide medium) | total ROS within 15 min compared to the control group ([5]; 10 nM peptide) | concentration at which total ROS within 15 min was significantly higher than the control ([5]; total RLU within 15 min, one-way ANOVA, n = 4) | inhibitory effect on primary root growth (in words) [6] | inhibitory effect on the shoot (in words) ([1]; Figure S1, Table S7)
CC(C)[C@H](NC(=O)[C@H](CCCCN)NC(=O)[C@H](CCC(=O)O)NC(=O)[C@H](CCCCN)NC(=O)CNC(=O)[C@H](CCCNC(=N)N)NC(=O)[C@H](CCC(N)=O)NC(=O)[C@@H](N)CCCCN)C(=O)N[C@@H](CO)C(=O)N[C@@H](CO)C(=O)NCC(=O)N[C@@H](CCCNC(=N)N)C(=O)N1CCC[C@H]1C(=O)NCC(=O)N[C@@H](CCC(N)=O)C(=O)N[C@@H](Cc1c[nH]cn1)C(=O)N[C@@H](CC(N)=O)C(=O)O [AtPEP1^(7–23)] (H-KQRGKEKVSSGRPGQHN-OH; N-terminus and C-terminus assumed) | 0.1995 | more efficient than AtPEP1^(1–23) | significantly reduced | increase in WOX5 expression | 10 nM | – | – | – | – | – | –
AtPEP1^(1–23): plant elicitor peptide 1 (PEP1) from Arabidopsis thaliana, composed of 23 amino acids, immune elicitor (ATKVKAKQRGKEKVSSGRPGQHN; Elicitor peptide 1; UniProt Q9LV87 70-92, looked up) [reference compound] | 0.05081 | promoted the generation of root hairs | significantly reduced | increase in WOX5 expression | 10 nM | 50 nM | 500 nM | no significant difference | greater than or equal to 100 nM | – | –
AtPEP1^(5–23): truncated peptide of AtPEP1(1–23), residues 5–23 (KAKQRGKEKVSSGRPGQHN; Elicitor peptide 1; UniProt Q9LV87 74-92, looked up, fragment) | 0.1141 | more efficient than AtPEP1^(1–23) | significantly reduced | increase in WOX5 expression | 10 nM | – | – | – | – | – | –
AtPEP1^(9–22): C-terminal truncated peptide created from AtPEP1(9–23) (RGKEKVSSGRPGQH; Elicitor peptide 1; UniProt Q9LV87 78-91, looked up, fragment) | -0.02327 | did not promote the generation of root hairs | did not show significant changes | – | 100 nM | – | – | – | – | – | –
AtPEP1^(9–23): truncating eight amino acids from the N-terminus of AtPEP1(1–23) (RGKEKVSSGRPGQHN; Elicitor peptide 1; UniProt Q9LV87 78-92, looked up, fragment) | 0.1045 | more efficient than AtPEP1^(1–23) | significantly reduced | increase in WOX5 expression | 10 nM | – | – | – | – | – | –
AtPEP1^(11–23): truncated peptide of AtPEP1(1–23), residues 11–23 (KEKVSSGRPGQHN; Elicitor peptide 1; UniProt Q9LV87 80-92, looked up, fragment) | 0.1293 | did not promote the generation of root hairs | significantly reduced | increase in WOX5 expression | 10 nM | 5 nM | – | – | – | lower than that of AtPEP1^(1–23) | –
AtPEP1^(13–23): truncating 12 amino acids from the N-terminus of AtPEP1(1–23) (KVSSGRPGQHN; Elicitor peptide 1; UniProt Q9LV87 82-92, looked up, fragment) | 0.03538 | did not promote the generation of root hairs | did not show significant changes | – | 10 nM | – | – | – | – | did not show an obvious inhibitory effect | does not inhibit
